{
  "source": "patent US11033516B1",
  "about": "“Combination therapies with disulfiram” (Spring Discovery, Inc., priority 2020, dated 2021)",
  "key": {"[1]": {"tested_on": "T-type calcium channels (T-channels)", "details": "native T-currents; cited from earlier work"}, "tyrosinase": {"molecular_target": "tyrosinase", "details": "read-out: IC50, reversible inhibitor of tyrosinase; cited from earlier work"}, "Spodoptera litura larvae": {"tested_on": "Spodoptera litura larvae", "details": "cited from earlier work"}, "[2]": {"tested_on": "most gram-positive and some gram-negative bacteria", "details": "cited from earlier work"}, "SAMP8 mice": {"tested_on": "SAMP8 mice", "details": "intragastric, 4-month-old SAMP8 mice, 2 months; cited from earlier work"}, "CYP3A4": {"molecular_target": "CYP3A4 (Homo sapiens, UniProt P08684)", "details": "cited from earlier work"}, "CYP2C8": {"molecular_target": "CYP2C8 (Homo sapiens, UniProt P10632)", "details": "cited from earlier work"}, "CYP2C9": {"molecular_target": "CYP2C9 (Homo sapiens, UniProt P11712)", "sequence (P11712 whole entry)": "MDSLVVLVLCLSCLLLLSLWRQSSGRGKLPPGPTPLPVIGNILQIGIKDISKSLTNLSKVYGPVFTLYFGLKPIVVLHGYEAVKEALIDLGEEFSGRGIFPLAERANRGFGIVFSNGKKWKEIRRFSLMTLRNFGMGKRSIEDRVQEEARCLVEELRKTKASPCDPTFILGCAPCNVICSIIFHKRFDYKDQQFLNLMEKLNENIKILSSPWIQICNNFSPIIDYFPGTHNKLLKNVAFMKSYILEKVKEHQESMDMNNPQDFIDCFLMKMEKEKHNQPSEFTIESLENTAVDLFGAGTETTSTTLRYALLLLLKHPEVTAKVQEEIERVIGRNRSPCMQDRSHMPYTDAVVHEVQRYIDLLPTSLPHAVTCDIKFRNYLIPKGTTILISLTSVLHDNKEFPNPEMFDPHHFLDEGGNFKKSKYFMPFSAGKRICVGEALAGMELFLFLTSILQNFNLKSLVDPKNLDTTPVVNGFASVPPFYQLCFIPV", "details": "cited from earlier work"}, "CYP2C19": {"molecular_target": "CYP2C19 (Homo sapiens, UniProt P33261)", "details": "cited from earlier work"}, "CYP2B6": {"molecular_target": "CYP2B6 (Homo sapiens, UniProt P20813)", "sequence (P20813 whole entry)": "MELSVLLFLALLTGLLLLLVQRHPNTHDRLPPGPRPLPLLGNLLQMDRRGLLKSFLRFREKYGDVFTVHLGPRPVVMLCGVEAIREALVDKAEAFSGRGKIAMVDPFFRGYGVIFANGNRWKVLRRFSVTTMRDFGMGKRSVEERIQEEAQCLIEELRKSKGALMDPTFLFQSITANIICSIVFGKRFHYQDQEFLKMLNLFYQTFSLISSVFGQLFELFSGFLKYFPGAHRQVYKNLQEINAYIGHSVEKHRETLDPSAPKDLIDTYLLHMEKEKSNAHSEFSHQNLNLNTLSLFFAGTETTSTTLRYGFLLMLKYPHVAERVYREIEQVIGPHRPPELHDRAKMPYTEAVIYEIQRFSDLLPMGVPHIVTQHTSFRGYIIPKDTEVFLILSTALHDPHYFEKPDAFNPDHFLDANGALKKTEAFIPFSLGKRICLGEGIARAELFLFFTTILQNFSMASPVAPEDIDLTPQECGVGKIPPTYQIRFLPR", "details": "cited from earlier work"}, "human SIRT2": {"molecular_target": "human SIRT2 (Homo sapiens, UniProt Q8IXJ6)", "details": "read-out: IC50, inhibition of human SIRT2; cited from earlier work"}, "human SIRT1": {"molecular_target": "human SIRT1 (Homo sapiens, UniProt Q96EB6)", "sequence (Q96EB6 whole entry)": "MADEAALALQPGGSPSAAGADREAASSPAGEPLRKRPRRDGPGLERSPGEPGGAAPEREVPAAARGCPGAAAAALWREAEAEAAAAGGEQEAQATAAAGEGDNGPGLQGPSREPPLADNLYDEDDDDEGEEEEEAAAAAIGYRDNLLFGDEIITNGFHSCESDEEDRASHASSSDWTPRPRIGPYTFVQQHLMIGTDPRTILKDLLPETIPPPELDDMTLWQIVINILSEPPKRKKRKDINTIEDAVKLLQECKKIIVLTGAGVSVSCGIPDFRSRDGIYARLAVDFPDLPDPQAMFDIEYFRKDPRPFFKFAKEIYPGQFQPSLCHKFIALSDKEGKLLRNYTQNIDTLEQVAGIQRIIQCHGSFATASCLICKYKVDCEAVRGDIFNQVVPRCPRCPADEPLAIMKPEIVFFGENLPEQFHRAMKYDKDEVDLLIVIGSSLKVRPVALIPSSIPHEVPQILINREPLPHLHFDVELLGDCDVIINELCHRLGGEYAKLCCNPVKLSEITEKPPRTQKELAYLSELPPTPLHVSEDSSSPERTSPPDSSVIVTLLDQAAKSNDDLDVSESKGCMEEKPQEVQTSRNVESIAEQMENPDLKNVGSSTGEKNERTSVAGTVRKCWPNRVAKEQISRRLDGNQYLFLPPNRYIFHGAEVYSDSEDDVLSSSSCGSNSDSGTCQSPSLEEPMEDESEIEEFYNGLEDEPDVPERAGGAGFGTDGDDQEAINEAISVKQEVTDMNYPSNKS", "details": "read-out: IC50, inhibition of human SIRT1; cited from earlier work"}, "FGFR2": {"molecular_target": "FGFR2 (Homo sapiens, UniProt P21802)", "sequence (P21802 22-821, species assumed)": "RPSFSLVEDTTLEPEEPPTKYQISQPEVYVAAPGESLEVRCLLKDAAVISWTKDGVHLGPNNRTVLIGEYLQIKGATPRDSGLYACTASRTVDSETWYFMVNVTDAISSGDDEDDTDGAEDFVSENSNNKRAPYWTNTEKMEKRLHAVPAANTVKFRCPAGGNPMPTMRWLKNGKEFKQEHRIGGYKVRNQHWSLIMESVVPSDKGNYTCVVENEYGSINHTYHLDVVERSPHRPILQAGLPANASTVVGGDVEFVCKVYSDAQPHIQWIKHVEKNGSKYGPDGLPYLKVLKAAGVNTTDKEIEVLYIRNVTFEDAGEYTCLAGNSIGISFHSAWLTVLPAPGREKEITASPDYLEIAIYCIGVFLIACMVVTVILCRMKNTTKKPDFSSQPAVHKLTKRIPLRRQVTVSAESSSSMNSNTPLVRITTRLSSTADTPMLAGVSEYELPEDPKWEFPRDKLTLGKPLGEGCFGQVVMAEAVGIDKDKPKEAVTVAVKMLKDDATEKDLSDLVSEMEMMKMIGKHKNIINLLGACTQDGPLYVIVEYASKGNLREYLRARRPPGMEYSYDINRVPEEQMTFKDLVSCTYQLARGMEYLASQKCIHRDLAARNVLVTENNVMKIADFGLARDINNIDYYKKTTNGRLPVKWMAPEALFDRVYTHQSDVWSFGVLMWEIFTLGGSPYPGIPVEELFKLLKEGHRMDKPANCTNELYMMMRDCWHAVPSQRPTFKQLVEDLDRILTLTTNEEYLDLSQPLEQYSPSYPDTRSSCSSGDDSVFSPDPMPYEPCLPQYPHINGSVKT", "details": "cited from earlier work"}, "[3]": {"molecular_target": "fibroblast growth factor receptor 1 (FGFR1) (Homo sapiens, UniProt P11362)", "sequence (P11362 22-822, species assumed)": "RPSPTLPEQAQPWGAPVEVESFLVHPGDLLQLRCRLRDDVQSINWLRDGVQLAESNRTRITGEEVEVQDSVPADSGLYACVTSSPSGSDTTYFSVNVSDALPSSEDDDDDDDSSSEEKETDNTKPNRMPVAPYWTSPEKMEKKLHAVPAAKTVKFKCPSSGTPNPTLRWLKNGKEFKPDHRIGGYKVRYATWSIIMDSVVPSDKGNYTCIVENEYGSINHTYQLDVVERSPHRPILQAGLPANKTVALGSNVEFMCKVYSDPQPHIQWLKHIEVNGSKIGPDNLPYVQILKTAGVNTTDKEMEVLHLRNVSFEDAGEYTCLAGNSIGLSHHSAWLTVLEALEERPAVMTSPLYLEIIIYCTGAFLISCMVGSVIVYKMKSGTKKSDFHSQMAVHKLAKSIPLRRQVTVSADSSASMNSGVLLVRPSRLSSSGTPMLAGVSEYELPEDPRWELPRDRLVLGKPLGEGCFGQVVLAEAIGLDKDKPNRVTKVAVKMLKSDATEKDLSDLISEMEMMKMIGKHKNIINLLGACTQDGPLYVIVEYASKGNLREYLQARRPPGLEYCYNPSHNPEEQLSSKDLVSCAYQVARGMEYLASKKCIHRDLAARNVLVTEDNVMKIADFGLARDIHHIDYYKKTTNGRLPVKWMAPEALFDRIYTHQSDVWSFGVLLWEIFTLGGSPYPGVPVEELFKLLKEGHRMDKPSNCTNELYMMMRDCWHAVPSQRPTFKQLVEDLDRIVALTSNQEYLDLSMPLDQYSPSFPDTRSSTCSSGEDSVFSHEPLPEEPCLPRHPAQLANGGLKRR", "details": "cited from earlier work"}, "SV-129 mice": {"tested_on": "SV-129 mice", "details": "450 mg/kg during a 15-minute period, after chronic simvastatin 2 mg/kg s.c. daily for 14 days; cited from earlier work"}, "[4]": {"molecular_target": "N-methyl-D-aspartate receptors (NMDARs) (Homo sapiens, UniProt Q05586)", "details": "read-out: KB, competitive antagonist for the glycine-binding site of NMDARs; cited from earlier work"}, "[5]": {"details": "510 mg/day, patients, cited from earlier work"}, "S. aureus": {"tested_on": "S. aureus", "details": "cited from earlier work"}, "most molds": {"tested_on": "most molds", "details": "for most molds; cited from earlier work"}, "[6]": {"details": "static toxicity tests; cited from earlier work"}, "HSV-1": {"tested_on": "HSV-1", "details": "cited from earlier work"}, "poliovirus": {"tested_on": "poliovirus", "details": "cited from earlier work"}, "[7]": {"tested_on": "vesicular stomatitis virus (VSV)", "details": "cited from earlier work"}, "Human erythrocyte GLUT1": {"molecular_target": "T1, Human erythrocyte GLUT1 (Homo sapiens, UniProt P11166)", "T1 construct": "Human erythrocyte GLUT1; from tissue; host or cells: human erythrocytes", "T1 sequence (P11166 whole entry)": "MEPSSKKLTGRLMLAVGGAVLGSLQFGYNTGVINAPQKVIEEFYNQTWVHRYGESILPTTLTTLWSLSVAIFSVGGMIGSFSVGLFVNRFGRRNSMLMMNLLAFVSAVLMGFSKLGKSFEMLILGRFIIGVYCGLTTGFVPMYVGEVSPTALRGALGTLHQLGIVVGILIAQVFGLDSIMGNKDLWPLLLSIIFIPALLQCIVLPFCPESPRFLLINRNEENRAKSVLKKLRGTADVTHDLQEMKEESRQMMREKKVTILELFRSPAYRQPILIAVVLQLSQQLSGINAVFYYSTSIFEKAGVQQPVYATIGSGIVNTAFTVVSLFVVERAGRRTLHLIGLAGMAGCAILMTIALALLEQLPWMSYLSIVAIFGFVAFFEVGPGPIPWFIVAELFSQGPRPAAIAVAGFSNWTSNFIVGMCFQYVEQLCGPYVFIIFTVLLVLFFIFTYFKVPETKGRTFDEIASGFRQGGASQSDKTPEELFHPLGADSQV", "details": "cited from earlier work"}, "Yeast-made GLUT1": {"molecular_target": "T2, Yeast-made GLUT1 (Rattus norvegicus, UniProt P11167)", "T2 construct": "host or cells: yeast", "details": "cited from earlier work"}, "[8]": {"tested_on": "carrageenan-induced edema and nociception", "details": "25, 50 or 100 mg/kg, i.p., immediately and 2 h after injection of carrageenan; cited from earlier work"}, "[9]": {"tested_on": "fever induced by lipopolysaccharide (LPS)", "details": "50 or 100 mg/kg, i.p., 0 and 2 h, rats; cited from earlier work"}, "COX-2": {"molecular_target": "COX-2 (Homo sapiens, UniProt P35354)", "details": "read-out: IC50, inhibition of COX-2 activity; cited from earlier work"}, "TRPM8": {"molecular_target": "TRPM8 (Homo sapiens, UniProt Q7Z2W7)", "details": "read-out: EC50, agonist of TRPM8; cited from earlier work"}, "hERG channel": {"molecular_target": "hERG channel (Homo sapiens, UniProt Q12809)", "sequence (Q12809 whole entry)": "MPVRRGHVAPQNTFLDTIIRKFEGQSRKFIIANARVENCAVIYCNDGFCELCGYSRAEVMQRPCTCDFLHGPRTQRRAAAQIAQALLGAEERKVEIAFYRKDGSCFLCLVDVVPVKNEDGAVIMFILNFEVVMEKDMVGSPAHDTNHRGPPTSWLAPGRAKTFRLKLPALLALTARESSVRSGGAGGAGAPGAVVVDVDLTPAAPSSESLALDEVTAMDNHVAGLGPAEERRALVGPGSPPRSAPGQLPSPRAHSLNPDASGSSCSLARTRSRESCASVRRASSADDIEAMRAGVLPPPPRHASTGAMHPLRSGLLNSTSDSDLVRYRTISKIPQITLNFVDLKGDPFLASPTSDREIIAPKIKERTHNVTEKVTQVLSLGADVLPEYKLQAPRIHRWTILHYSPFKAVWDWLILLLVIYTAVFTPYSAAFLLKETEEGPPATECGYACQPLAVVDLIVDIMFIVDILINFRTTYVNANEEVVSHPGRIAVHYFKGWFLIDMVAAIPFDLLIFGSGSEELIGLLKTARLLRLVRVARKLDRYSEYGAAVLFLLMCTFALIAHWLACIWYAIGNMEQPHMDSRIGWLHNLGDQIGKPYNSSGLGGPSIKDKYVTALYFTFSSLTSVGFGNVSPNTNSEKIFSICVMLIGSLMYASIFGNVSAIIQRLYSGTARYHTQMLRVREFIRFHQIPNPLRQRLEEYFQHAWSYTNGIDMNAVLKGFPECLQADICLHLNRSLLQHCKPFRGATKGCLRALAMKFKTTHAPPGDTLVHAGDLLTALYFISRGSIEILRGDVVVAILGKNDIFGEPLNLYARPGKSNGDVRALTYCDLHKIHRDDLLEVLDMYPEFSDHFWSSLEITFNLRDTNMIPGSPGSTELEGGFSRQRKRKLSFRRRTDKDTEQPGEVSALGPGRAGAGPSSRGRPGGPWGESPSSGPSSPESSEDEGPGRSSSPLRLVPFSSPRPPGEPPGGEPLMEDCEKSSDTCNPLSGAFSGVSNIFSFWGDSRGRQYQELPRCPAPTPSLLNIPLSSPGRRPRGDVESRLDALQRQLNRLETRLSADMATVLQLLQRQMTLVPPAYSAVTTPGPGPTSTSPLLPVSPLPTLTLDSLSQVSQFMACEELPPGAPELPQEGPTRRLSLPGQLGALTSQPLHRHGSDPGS", "details": "read-out: IC50, hERG channel blocker; cited from earlier work"}, "THP1 HMGB1 Lucia cells": {"tested_on": "THP1 HMGB1 Lucia cells", "test": "Pyroptosis inhibition luciferase assay (LPS + nigericin, HMGB1 luciferase reporter, QUANTI-Luc)", "details": "1 μg/ml LPS 3 h, then 10 μM nigericin 3 h"}, "[10]": {"tested_on": "fibroblasts, peripheral blood mononuclear cells (PBMCs), myoblasts", "test": "Reversal of aging (reducing predicted age) in cultured young/old cells contacted with disulfiram plus potentiating ingredients", "details": "concentrations 0.000005 to 80 μM; potentiating ingredient up to 25 μM"}, "[11]": {"tested_on": "periodontopathic and cariogenic bacteria", "details": "cited from earlier work"}, "β-glucosidase": {"molecular_target": "β-glucosidase", "details": "cited from earlier work"}},
  "data": [
    {"molecule": "CCCCCCCCO", "note": "[1-Octanol]", "values": [
      {"measurement": "IC50", "setting": "[1]", "value": 4, "unit": "µM"}
    ]},
    {"molecule": "O=C(O)CCC(=O)C(=O)O", "note": "[2-Ketoglutaric acid]", "values": [
      {"measurement": "IC50", "setting": "tyrosinase", "value": 15000, "unit": "µM"}
    ]},
    {"molecule": "CCCC=C1OC(=O)c2ccccc21", "note": "[3-Butylidenephthalide]", "values": [
      {"measurement": "LC50 larvicidal activity", "setting": "Spodoptera litura larvae", "value": "activity (LC50 of 1.56 mg/g for Spodoptera"}
    ]},
    {"molecule": "O=C(O)c1ccc(O)cc1", "note": "[4-Hydroxybenzoic acid]", "values": [
      {"measurement": "IC50, inhibition of most gram-positive and some gram-negative bacteria", "setting": "[2]", "value": "of 160 μg/mL."}
    ]},
    {"molecule": "CCCCC1OC(=O)c2ccccc21", "note": "(stereo not shown) [Butylphthalide]", "values": [
      {"measurement": "loss of choline acetyltransferase (ChAT)-positive neurons in the medial septal nucleus and vertical limb of the diagonal band", "setting": "SAMP8 mice", "value": "diagonal band in SAMP8 mice was slowed down,"},
      {"measurement": "spatial learning and memory ability", "setting": "SAMP8 mice", "value": "2 months significantly improved spatial learning a"}
    ]},
    {"molecule": "C[C@@H]1CC[C@H]2C(C)(C)[C@H]3C[C@@]12CC[C@@]3(C)O", "note": "[Cedrol]", "values": [
      {"measurement": "Ki", "setting": "CYP3A4", "value": 3.4, "unit": "µM"},
      {"measurement": "inhibitory effect on CYP2C8", "setting": "CYP2C8", "value": "has weak inhibitory effect on CYP2C8,"},
      {"measurement": "inhibitory effect on CYP2C9", "setting": "CYP2C9", "value": "has weak inhibitory effect on CYP2C8,"},
      {"measurement": "inhibitory effect on CYP2C19", "setting": "CYP2C19", "value": "has weak inhibitory effect on CYP2C8,"},
      {"measurement": "Ki", "setting": "CYP2B6", "value": 0.9, "unit": "µM"}
    ]},
    {"molecule": "O=C1CCc2ccccc2O1", "note": "[Dihydrocoumarin]", "values": [
      {"measurement": "IC50", "setting": "human SIRT2", "value": 295, "unit": "µM"},
      {"measurement": "IC50", "setting": "human SIRT1", "value": 208, "unit": "µM"}
    ]},
    {"molecule": "COc1cc(/C=C/C(=O)O)ccc1O", "note": "[Ferulic acid (sodium)]", "values": [
      {"measurement": "IC50", "setting": "FGFR2", "value": 12.5, "unit": "µM"},
      {"measurement": "IC50", "setting": "[3]", "value": 3.78, "unit": "µM"}
    ]},
    {"molecule": "N=C(N)NCCC[C@H](N)C(=O)O", "note": "[L-Arginine]", "values": [
      {"measurement": "hyperemia amplified and sustained", "setting": "SV-129 mice", "value": "hyperemia (38%) and increases absolute brain"}
    ]},
    {"molecule": "N[C@@H](Cc1ccccc1)C(=O)O", "note": "[L-Phenylalanine]", "values": [
      {"measurement": "Kb", "setting": "[4]", "value": 573, "unit": "µM"}
    ]},
    {"molecule": "C[N+](C)(C)C[C@H](O)CC(=O)[O-]", "note": "[L-carnitine]", "values": [
      {"measurement": "total time for dozing off during the daytime, calculated from the sleep logs", "setting": "[5]; compared with placebo-treated periods", "value": "improved the total time for dozing off during the"},
      {"measurement": "serum acylcarnitine levels", "setting": "[5]", "value": "(Levocarnitine) efficiently increased serum acyl-"},
      {"measurement": "serum triglycerides concentration", "setting": "[5]", "value": "carnitine levels, and reduced serum triglycerides"}
    ]},
    {"molecule": "CCCCCCCCCCCC(=O)O", "note": "[Lauric acid]", "values": [
      {"measurement": "EC50 for S. aureus", "setting": "S. aureus", "value": 6, "unit": "µg/mL"}
    ]},
    {"molecule": "C[C@@H]1C/C=C/C=C/C=C/C=C/[C@H](O[C@@H]2O[C@H](C)[C@@H](O)[C@H](N)[C@@H]2O)C[C@@H]2O[C@](O)(C[C@@H](O)C[C@H]3O[C@@H]3/C=C/C(=O)O1)C[C@H](O)[C@H]2C(=O)O", "note": "[Natamycin]", "values": [
      {"measurement": "MIC (minimum inhibitory concentration)", "setting": "most molds", "value": "concentration) of less than 10 ppm for most molds."}
    ]},
    {"molecule": "CCCCCCCCC(=O)NCc1ccc(O)c(OC)c1", "note": "[Nonivamide]", "values": [
      {"measurement": "4d-EC50", "setting": "[6]", "value": "exhibits 4d-EC50 value of 5.1 mg/L in static"}
    ]},
    {"molecule": "CCCCCCCCOC(=O)c1cc(O)c(O)c(O)c1", "note": "[Octyl gallate]", "values": [
      {"measurement": "antiviral effect against HSV-1", "setting": "HSV-1", "value": "Octyl gallate shows a marked antiviral effect"},
      {"measurement": "antiviral effect against poliovirus", "setting": "poliovirus", "value": "Octyl gallate shows a marked antiviral effect"},
      {"measurement": "antiviral effect against vesicular stomatitis virus (VSV)", "setting": "[7]", "value": "Octyl gallate shows a marked antiviral effect"}
    ]},
    {"molecule": "O=C(CCc1ccc(O)cc1)c1c(O)cc(O)cc1O", "note": "[Phloretin]", "values": [
      {"measurement": "IC50", "setting": "Human erythrocyte GLUT1", "value": 61, "unit": "µM"},
      {"measurement": "IC50", "setting": "Yeast-made GLUT1", "value": 49, "unit": "µM"}
    ]},
    {"molecule": "Cc1cc2nc3c(=O)[nH]c(=O)nc-3n(C[C@H](O)[C@H](O)[C@H](O)CO)c2cc1C", "note": "[Riboflavin]", "values": [
      {"measurement": "antinociceptive effect", "setting": "[8]", "value": "antinociceptive effects. The antinociceptive effect"},
      {"measurement": "fever induced by lipopolysaccharide (LPS)", "setting": "[9]", "value": "2 h) also inhibited the fever induced by lipopoly-"}
    ]},
    {"molecule": "COc1cc(C=O)cc(OC)c1O", "note": "[Syringaldehyde]", "values": [
      {"measurement": "IC50", "setting": "COX-2", "value": 19.2, "unit": "µM"}
    ]},
    {"molecule": "CCNC(=O)C1CC(C)CCC1C(C)C", "note": "(stereo not shown) [TRPM8 antagonist WS-3]", "values": [
      {"measurement": "EC50", "setting": "TRPM8", "value": 3.7, "unit": "µM"}
    ]},
    {"molecule": "O=C(OC[C@H]1O[C@@H](OC(=O)c2cc(O)c(O)c(OC(=O)c3cc(O)c(O)c(O)c3)c2)[C@H](OC(=O)c2cc(O)c(O)c(OC(=O)c3cc(O)c(O)c(O)c3)c2)[C@@H](OC(=O)c2cc(O)c(O)c(OC(=O)c3cc(O)c(O)c(O)c3)c2)[C@@H]1OC(=O)c1cc(O)c(O)c(OC(=O)c2cc(O)c(O)c(O)c2)c1)c1cc(O)c(O)c(OC(=O)c2cc(O)c(O)c(O)c2)c1", "note": "[Tannic acid]", "values": [
      {"measurement": "IC50", "setting": "hERG channel", "value": 3.4, "unit": "µM"}
    ]},
    {"molecule": "O=C/C=C/c1ccccc1", "note": "[cinnamaldehyde, (2E)-3-Phenyl-2-propenal]", "values": [
      {"measurement": "inhibition of pyroptosis (HMGB1 luciferase reporter in supernatant)", "setting": "THP1 HMGB1 Lucia cells", "value": "no effect"},
      {"measurement": "ability to potentiate disulfiram in reversing aging of cells", "setting": "[10]", "value": "identified as a potentiating ingredient"}
    ]},
    {"molecule": "CC1=CCC(C(C)(C)O)CC1", "note": "(stereo not drawn) [α-Terpineol]", "values": [
      {"measurement": "antimicrobial activity against periodontopathic and cariogenic bacteria", "setting": "[11]", "value": "Labill, exhibits strong antimicrobial activity"}
    ]},
    {"molecule": "Rebaudioside A", "values": [
      {"measurement": "IC 50 (Target: β-glucosidase)", "setting": "β-glucosidase", "value": "IC 50: 35.01 ug/mL"}
    ]}
  ]
}
